Consider 5 compounds from patent US12252524B2, “GIP/GLP1 co-agonist compounds” (Eli Lilly and Company, priority 2018, dated 2025).

What is called Ki is a measure of affinity in units of concentration, obtained from inhibition or displacement. As a reminder, the EC50 is the concentration needed to bring the measured effect to its halfway point.

Molecules are shown by their SMILES. Numbered stars: 1 amine (or outer) side, 2 acyl side, 3 side chain; on linkers, the order of the positions; unused ones are H or OH. Square brackets hold non-standard residues; d marks the D form. Side chains are listed from the residue outwards. Peptide text beside a SMILES is read from it. * marks the point of attachment. C20 diacid = O=C(O)CCCCCCCCCCCCCCCCCCC(=O)*; γGlu = O=C(O)[C@H](CCC(=O)[*:2])N[*:1]; αMeF = C[C@](N)(Cc1ccccc1)C(=O)O; αMeL = CC(C)C[C@](C)(N)C(=O)O; AEEA = NCCOCCOCC(=O)O; Aib = CC(C)(N)C(=O)O

One assay addresses T1, human Gcg receptor (Homo sapiens, UniProt P47871).
T1 construct: expressed in transfected cells; crude membranes
Briefly: [125I]-Glucagon binding (SPA), human Gcg receptor. The conditions noted are these: read-out: hGLcgR Ki, nM (SEM, n). The method in brief:
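Cell pellets were lysed in hypotonic Tris buffer, pH 7.5, homogenized, and spun at low then high speed to give crude membranes. Ki was derived from the fitted IC50.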

The target in another assay is T2, human GIP receptor (Homo sapiens, UniProt P48546).
T2 construct: expressed in transfected cells; crude membranes
T2 sequence (P48546 22-466): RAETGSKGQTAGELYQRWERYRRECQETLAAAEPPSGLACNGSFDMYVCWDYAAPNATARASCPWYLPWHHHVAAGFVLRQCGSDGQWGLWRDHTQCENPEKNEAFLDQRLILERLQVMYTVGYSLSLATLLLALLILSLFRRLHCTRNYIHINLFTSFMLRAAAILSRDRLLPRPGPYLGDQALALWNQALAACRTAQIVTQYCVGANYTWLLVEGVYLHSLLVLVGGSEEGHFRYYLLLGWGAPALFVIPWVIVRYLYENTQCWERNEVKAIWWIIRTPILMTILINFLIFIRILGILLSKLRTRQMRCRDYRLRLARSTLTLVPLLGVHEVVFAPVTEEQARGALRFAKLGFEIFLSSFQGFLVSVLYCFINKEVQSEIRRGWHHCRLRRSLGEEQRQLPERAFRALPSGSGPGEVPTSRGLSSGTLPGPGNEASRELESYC
Briefly: [125I]-GIP binding (SPA), human GIP receptor. Particulars: read-out: hGIPR Ki, nM (SEM, n).

Assay [1] addresses human GLP-1 receptor (GLP-1R) (Homo sapiens, UniProt P43220). Briefly: cAMP pharmacological functional assay in presence of casein, hGLP-1R. Type of assay: cell-based. Particulars: HEK293 cells expressing hGLP-1R, 0.1% Casein, geometric mean; read-out: hGLP1R cAMP Rel EC50 nM (SEM, n).
In assay [2] the target is T3, gastric inhibitory peptide receptor (GIPR) (Homo sapiens, UniProt P48546).
T3 sequence (P48546 22-466): T2 sequence (P48546 22-466)
Briefly: cAMP pharmacological functional assay in presence of casein, hGIPR. Type of assay: cell-based. Particulars: HEK293 cells expressing hGIPR, 0.1% Casein, geometric mean; read-out: hGIPR cAMP Rel EC50 nM (SEM, n).

In a further assay the target is human GLP-1R (Homo sapiens, UniProt P43220). Briefly: [125I]-GLP-1 binding (SPA), human GLP-1 receptor. Particulars: read-out: hGLP1R Ki, (nM) (SEM, n). More on the design: expressed in transfected cells; crude membranes. The method in brief:
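Crude-membrane binding assay; one membrane prep included 1 mM MgCl2 and 25 units/ml DNAse I during lysis. Assay buffer at pH 7.4 contains 0.1% (w/v) bacitracin and 0.003% (w/v) TWEEN-20. Ki is reported as geometric mean.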

human GLP-1 receptor (GLP-1R), sequence (P43220 24-463): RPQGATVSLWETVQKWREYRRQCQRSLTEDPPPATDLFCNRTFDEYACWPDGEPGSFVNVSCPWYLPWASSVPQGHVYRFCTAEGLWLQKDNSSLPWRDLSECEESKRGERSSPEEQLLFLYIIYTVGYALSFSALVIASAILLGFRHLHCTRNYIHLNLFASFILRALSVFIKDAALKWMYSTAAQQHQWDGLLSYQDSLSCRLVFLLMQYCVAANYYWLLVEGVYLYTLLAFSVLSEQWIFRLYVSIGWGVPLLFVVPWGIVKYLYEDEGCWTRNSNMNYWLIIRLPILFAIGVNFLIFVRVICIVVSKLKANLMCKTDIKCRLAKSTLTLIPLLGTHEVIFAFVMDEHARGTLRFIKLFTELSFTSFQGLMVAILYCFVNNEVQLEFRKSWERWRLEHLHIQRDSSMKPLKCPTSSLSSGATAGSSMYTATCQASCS
human GLP-1R, sequence (P43220 24-463): as above
T1 sequence (P47871 26-477): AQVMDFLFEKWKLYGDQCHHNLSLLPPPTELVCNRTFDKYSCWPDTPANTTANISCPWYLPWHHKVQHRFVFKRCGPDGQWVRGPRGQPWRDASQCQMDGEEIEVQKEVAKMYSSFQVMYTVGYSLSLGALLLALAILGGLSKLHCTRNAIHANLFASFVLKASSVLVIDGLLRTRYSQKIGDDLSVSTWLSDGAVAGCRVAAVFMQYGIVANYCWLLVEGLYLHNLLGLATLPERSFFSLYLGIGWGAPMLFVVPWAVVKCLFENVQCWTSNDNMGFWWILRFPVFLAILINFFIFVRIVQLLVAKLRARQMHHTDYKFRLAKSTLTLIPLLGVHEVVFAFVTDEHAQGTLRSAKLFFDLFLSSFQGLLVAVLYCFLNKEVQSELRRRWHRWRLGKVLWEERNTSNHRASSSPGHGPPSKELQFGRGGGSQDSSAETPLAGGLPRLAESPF

For the compound `CC[C@H](C)[C@H](NC(=O)[C@H](CC(C)C)NC(=O)[C@H](Cc1ccc(O)cc1)NC(=O)[C@H](CCC(=O)O)NC(=O)[C@@H](NC(=O)[C@H](Cc1ccccc1)NC(=O)[C@H](CCC(=O)O)NC(=O)C(C)(C)NC(=O)[C@H](CCC(N)=O)NC(=O)[C@H](C)NC(=O)[C@H](CCCCNC(=O)COCCOCCNC(=O)COCCOCCNC(=O)CC[C@H](NC(=O)CCCCCCCCCCCCCCCCCCC(=O)O)C(=O)O)NC(=O)[C@H](CCC(=O)O)NC(=O)[C@H](CC(=O)O)NC(=O)[C@H](CC(C)C)NC(=O)[C@](C)(CC(C)C)NC(=O)[C@@H](NC(=O)[C@H](CO)NC(=O)[C@H](Cc1ccc(O)cc1)NC(=O)[C@H](CC(=O)O)NC(=O)[C@H](CO)NC(=O)[C@@H](NC(=O)[C@](C)(Cc1ccccc1)NC(=O)[C@@H](NC(=O)CNC(=O)[C@H](CCC(=O)O)NC(=O)C(C)(C)NC(=O)[C@@H](N)Cc1ccc(O)cc1)[C@@H](C)O)[C@@H](C)O)[C@@H](C)CC)[C@@H](C)CC)C(=O)N[C@@H](CCC(=O)O)C(=O)NCC(=O)NCC(=O)N1CCC[C@H]1C(=O)N[C@@H](CO)C(=O)N[C@@H](CO)C(=O)NCC(N)=O` [Example 124] (H-Y[Aib]EGT[αMeF]TSDYSI[αMeL]LDEK([AEEA-AEEA-γGlu-C20 diacid])AQ[Aib]EFIEYLIEGGPSSG-NH2), the Ki at human Gcg receptor was 41.5 nM; on human GIP receptor, 0.0424 nM; at human GLP-1R, 4.87 nM. Further, the 50% effective concentration (EC50) turned out to be 0.0475 nM in assay [1] and 0.0762 nM in assay [2].
As for `CC[C@H](C)[C@H](NC(=O)[C@H](CC(C)C)NC(=O)[C@H](Cc1ccc(O)cc1)NC(=O)[C@H](CCC(=O)O)NC(=O)[C@@H](NC(=O)[C@H](Cc1ccccc1)NC(=O)[C@H](C)NC(=O)C(C)(C)NC(=O)[C@H](CCC(N)=O)NC(=O)[C@H](C)NC(=O)[C@H](CCCCNC(=O)COCCOCCNC(=O)COCCOCCNC(=O)CC[C@H](NC(=O)CC[C@H](NC(=O)CCCCCCCCCCCCCCCCCCC(=O)O)C(=O)O)C(=O)O)NC(=O)[C@H](CCCCN)NC(=O)[C@H](CC(=O)O)NC(=O)[C@H](CC(C)C)NC(=O)[C@](C)(CC(C)C)NC(=O)[C@@H](NC(=O)[C@H](CO)NC(=O)[C@H](Cc1ccc(O)cc1)NC(=O)[C@H](CC(=O)O)NC(=O)[C@H](CO)NC(=O)[C@@H](NC(=O)[C@](C)(Cc1ccccc1)NC(=O)[C@@H](NC(=O)CNC(=O)[C@H](CCC(=O)O)NC(=O)C(C)(C)NC(=O)[C@@H](N)Cc1ccc(O)cc1)[C@@H](C)O)[C@@H](C)O)[C@@H](C)CC)[C@@H](C)CC)C(=O)N[C@@H](CCC(=O)O)C(=O)NCC(=O)NCC(=O)N1CCC[C@H]1C(=O)N[C@@H](CO)C(=O)N[C@@H](CO)C(=O)NCC(=O)N[C@@H](C)C(=O)N1CCC[C@H]1C(=O)N1CCC[C@H]1C(=O)N1CCC[C@H]1C(=O)N[C@@H](CO)C(N)=O` [Example 125], the results for the inhibition constant Ki on human Gcg receptor, at human GIP receptor and at human GLP-1R were 54.4 nM, 0.0624 nM and 3.19 nM, respectively. In addition, the results for the EC50 in assay [1] and in assay [2] were 0.0478 nM and 0.0381 nM, respectively.
For `CC[C@H](C)[C@H](NC(=O)[C@H](CC(C)C)NC(=O)[C@H](Cc1ccc(O)cc1)NC(=O)[C@H](CCC(=O)O)NC(=O)[C@@H](NC(=O)[C@H](Cc1ccccc1)NC(=O)[C@H](C)NC(=O)C(C)(C)NC(=O)[C@H](CCC(N)=O)NC(=O)[C@H](C)NC(=O)[C@H](CCCCNC(=O)COCCOCCNC(=O)COCCOCCNC(=O)CC[C@H](NC(=O)CCCCCCCCCCCCCCCCCCC(=O)O)C(=O)O)NC(=O)[C@H](CCCCN)NC(=O)[C@H](CC(=O)O)NC(=O)[C@H](CC(C)C)NC(=O)[C@](C)(CC(C)C)NC(=O)[C@@H](NC(=O)[C@H](CO)NC(=O)[C@H](Cc1ccc(O)cc1)NC(=O)[C@H](CC(=O)O)NC(=O)[C@H](CO)NC(=O)[C@@H](NC(=O)[C@](C)(Cc1ccccc1)NC(=O)[C@@H](NC(=O)CNC(=O)[C@H](CCC(=O)O)NC(=O)C(C)(C)NC(=O)[C@@H](N)Cc1ccc(O)cc1)[C@@H](C)O)[C@@H](C)O)[C@@H](C)CC)[C@@H](C)CC)C(=O)N[C@@H](CCC(=O)O)C(=O)N[C@@H](C)C(=O)NCC(=O)N1CCC[C@H]1C(=O)N[C@@H](CO)C(=O)N[C@@H](CO)C(=O)NCC(=O)N[C@@H](C)C(=O)N1CCC[C@H]1C(=O)N1CCC[C@H]1C(=O)N1CCC[C@H]1C(=O)N[C@@H](CO)C(N)=O` [Example 126] (H-Y[Aib]EGT[αMeF]TSDYSI[αMeL]LDKK([AEEA-AEEA-γGlu-C20 diacid])AQ[Aib]AFIEYLIEAGPSSGAPPPS-NH2; N-terminus assumed) the same measures were 101 nM, 0.0644 nM, 1.46 nM, 0.0715 nM and 0.0685 nM.
For `CC[C@H](C)[C@H](NC(=O)[C@H](CC(C)C)NC(=O)[C@H](Cc1ccc(O)cc1)NC(=O)[C@H](CCC(=O)O)NC(=O)[C@@H](NC(=O)[C@H](Cc1ccccc1)NC(=O)[C@H](C)NC(=O)C(C)(C)NC(=O)[C@H](CCC(N)=O)NC(=O)[C@H](C)NC(=O)[C@H](CCCCNC(=O)COCCOCCNC(=O)COCCOCCNC(=O)CC[C@H](NC(=O)CCCCCCCCCCCCCCCCCCC(=O)O)C(=O)O)NC(=O)[C@H](CCCCN)NC(=O)[C@H](CC(=O)O)NC(=O)[C@H](CC(C)C)NC(=O)[C@H](CC(C)C)NC(=O)[C@@H](NC(=O)[C@H](CO)NC(=O)[C@@H](NC(=O)[C@H](CC(=O)O)NC(=O)[C@H](CO)NC(=O)[C@@H](NC(=O)[C@](C)(Cc1ccccc1)NC(=O)[C@@H](NC(=O)CNC(=O)[C@H](CCC(=O)O)NC(=O)C(C)(C)NC(=O)[C@@H](N)Cc1ccc(O)cc1)[C@@H](C)O)[C@@H](C)O)[C@@H](C)CC)[C@@H](C)CC)[C@@H](C)CC)C(=O)N[C@@H](CCC(=O)O)C(=O)NCC(=O)NCC(=O)N1CCC[C@H]1C(=O)N[C@@H](CO)C(=O)N[C@@H](CO)C(=O)NCC(=O)N[C@@H](C)C(=O)N1CCC[C@H]1C(=O)N1CCC[C@H]1C(=O)N1CCC[C@H]1C(=O)N[C@@H](CO)C(N)=O` [Example 127] (H-Y[Aib]EGT[αMeF]TSDISILLDKK([AEEA-AEEA-γGlu-C20 diacid])AQ[Aib]AFIEYLIEGGPSSGAPPPS-NH2; N-terminus assumed), in that order: 43.6 nM, 0.126 nM, 1.86 nM, 0.145 nM and 0.158 nM.
For `CC[C@H](C)[C@H](NC(=O)[C@H](CC(C)C)NC(=O)[C@H](Cc1ccc(O)cc1)NC(=O)[C@H](CCC(=O)O)NC(=O)[C@@H](NC(=O)[C@H](Cc1ccccc1)NC(=O)[C@H](C)NC(=O)C(C)(C)NC(=O)[C@H](CCC(N)=O)NC(=O)[C@H](C)NC(=O)[C@H](CCCCNC(=O)COCCOCCNC(=O)COCCOCCNC(=O)CC[C@H](NC(=O)CCCCCCCCCCCCCCCCCCC(=O)O)C(=O)O)NC(=O)[C@H](CCCCN)NC(=O)[C@H](CC(=O)O)NC(=O)[C@H](CC(C)C)NC(=O)[C@H](CC(C)C)NC(=O)[C@@H](NC(=O)[C@H](CO)NC(=O)[C@H](Cc1c[nH]cn1)NC(=O)[C@H](CC(=O)O)NC(=O)[C@H](CO)NC(=O)[C@@H](NC(=O)[C@](C)(Cc1ccccc1)NC(=O)[C@@H](NC(=O)CNC(=O)[C@H](CCC(=O)O)NC(=O)C(C)(C)NC(=O)[C@@H](N)Cc1ccc(O)cc1)[C@@H](C)O)[C@@H](C)O)[C@@H](C)CC)[C@@H](C)CC)C(=O)N[C@@H](CCC(=O)O)C(=O)NCC(=O)NCC(=O)N1CCC[C@H]1C(=O)N[C@@H](CO)C(=O)N[C@@H](CO)C(=O)NCC(=O)N[C@@H](C)C(=O)N1CCC[C@H]1C(=O)N1CCC[C@H]1C(=O)N1CCC[C@H]1C(=O)N[C@@H](CO)C(N)=O` [Example 128] (H-Y[Aib]EGT[αMeF]TSDHSILLDKK([AEEA-AEEA-γGlu-C20 diacid])AQ[Aib]AFIEYLIEGGPSSGAPPPS-NH2), in that order: 433 nM, 0.0625 nM, 1.88 nM, 0.0924 nM and 0.0694 nM.
